Assay results reported in US4879311A, “Derivatives of benzoyloxyacetic acid, and preparation and formulations thereof for therapeutic use” (Inverni della Beffa S.p.A., priority 1987, dated 1989).
Several values for one entry are separate records, joined by “and”; a condition that tells them apart may be missing. Equal entries are not always repeated. Entries after “also recorded” stand apart in the source; their conditions may differ. Structures can show the parent of a compound that is named as a salt. Where two headings read alike, the source gives them in different places.

Key:
[1] = acute toxicity on the rat, oral LD50; type: in vivo; details: rat, in vivo, po
Protocol: (§1) The anti-inflammatory and analgesic activity of compound Ib was tested after oral administration in the carrageenin oedema test in the rat (C. A. Winter et al. Proc. Soc. Exp. Biol. Med., 111, 544, 1962), in the phenylquinone writhing test (I. C. Hendershot and J. J. Forsaith, Pharmacol. Exp. Ther., 125, 237, 1959) and in the hot plate test on the mouse (N. B. Eddy and D. J. Leimbach, J. Pharmacol. Exp. Ther., 107, 385, 1953). The activity of the compound was compared with equimolecular doses of sodium meclofenamate. A comparison was also made between the acute toxicity of the two substances by measuring the oral LD 50 on the rat.
(§2) The two LD 50 values were calculated by the probit method.

rat = test: acute toxicity on the rat, oral LD50; type: in vivo
Protocol: as §1, §2

pH of aqueous solution = type: physicochemical
arachidonic acid oedema = arachidonic acid oedema in the rat, oral administration; type: in vivo; details: for change of Increase of Original Volume (in parentheses), 60 min: vs controls
Protocol: (1) Arachidonic acid oedema in the rat (M. J. Di Martino, G. C. Campbell Jnr., C. E. Wolff and N. Hanna, Agents and Actions; 21, 303, 1987)
Compound Ib was administered by gastric probe one hour before subplantar injection of 0.1 ml of 0.5% arachidonic acid in carbonate buffer (pH 8-8.2).
The volume of the paws of the treated animals and of the control was measured with a plethysmometer immediately and 60 minutes after the irritating agent (peak time of oedema).

[2] = test system: writhing induced by phenylquinone; test: phenylquinone writhing test, oral administration; type: in vivo, mouse
Protocol: as §1
The substances under test were administered by a stomach probe 1 hour before intraperitoneal injection of phenylquinone (2 mg/kg). The abdominal contractions of the treated animals and the controls were counted during every 10 minutes for half an hour.

[3] = test system: 6-day old air pouch irritated by carrageenan; test: irritation of 6-day old air pouch by carrageenan in the rat; type: in vivo
Protocol: (2) Irritation of 6-day old air pouch by carrageenan in the rat (A. D. Sedgwick, Y. M. Sin, A. R. Mackay, A. Al-Duaij and D. A. Willoughby; J. Pharm. Pharmacol.; 36, 171, 1984).
The formation of a dorsal pouch was induced in the rat by dorsal subcutaneous administration of 20 ml of air. 10 ml of air were then injected every day for three consecutive days in order to keep the cavity permeable. Six days after the first injection of air, the dorsal pouch in the animals was treated with 1 ml of 1% carrageenan in physiological solution.
Compound Ib was administered by gastric probe, 24 hours and 1 hour before administration of the irritating agent.
The animals, dividedinto groups of five, were killed 4 hours and 24 hours after the carrageenan. The volume of the exudate and the total number of leucocytes were measured.

[4] = test system: reaction time to heat (hot plate); type: in vivo, mouse; details: oral; for Percentages of mice protected at 30 minutes / Percentages of mice protected at 60 minutes: reaction time 15 seconds or more, 55° C.
Protocol: as §1
The substances under test were administered by a stomach probe to preselected mice. The controls and the treated animals were placed on the hot plate (55° C.) one at a time immediately after treatment. The reaction time to heat, was measured 30 and 60 minutes after treatment. Animals were considered protected when the reaction time was 15 seconds or more.

carrageenin oedema = carrageenin oedema test in the rat, oral administration; type: in vivo; details: for % change of increase of original volume, 1 h / % change of increase of original volume, 2 h / % change of increase of original volume, 3 h / % change of increase of original volume, 4 h / % change of increase of original volume, 5 h: vs controls
Protocol: as §1
The substances under test, dissolved in distilled water, were administered by a stomach probe 1 hour before subplantar injection of carrageenin (1% in sterile 0.9% NaCl aqueous solution). […]

[5] = Ib 12.7 mg/kg, sodium meclofenamate 11 mg/kg
[6] = oral, Ib 12.7 mg/kg, sodium meclofenamate 11.0 mg/kg
[7] = oral, Ib 25.4 mg/kg, sodium meclofenamate 22.0 mg/kg
[8] = oral, dose corresponding to 10 mg/kg meclofenamic acid (Ib 12.7 mg/kg; sodium meclofenamate 11.0 mg/kg)
[9] = oral, dose corresponding to 10 mg/kg meclofenamic acid (Ib 12.7 mg/kg; sodium meclofenamate 11.0 mg/kg), **P < 0.01 vs controls
[10] = oral, dose corresponding to 20 mg/kg meclofenamic acid (Ib 25.4 mg/kg; sodium meclofenamate 22.0 mg/kg), **P < 0.01 vs controls
[11] = os, Ib 31.75 mg/kg × 2 (**P < 0.01), sodium meclofenamate 27.5 mg/kg × 2 (*P < 0.05 vs controls), 24 h
[12] = os, Ib 31.75 mg/kg × 2, sodium meclofenamate 27.5 mg/kg × 2, 4 h, vs controls
[13] = os, Ib 31.75 mg/kg × 2, sodium meclofenamate 27.5 mg/kg × 2, 24 h, vs controls
[14] = Ib 25.4 mg/kg, sodium meclofenamate 22 mg/kg
[15] = rat, oral, dose corresponding to 10 mg/kg meclofenamic acid (Ib 12.7 mg/kg; sodium meclofenamate 11.0 mg/kg)
[16] = rat, oral, dose corresponding to 10 mg/kg meclofenamic acid
[17] = rat, oral, dose corresponding to 20 mg/kg meclofenamic acid (Ib 25,4 mg/kg; sodium meclofenamate 22,0 mg/kg), **P < 0.01 vs controls
[18] = rat, oral, dose corresponding to 20 mg/kg meclofenamic acid

Cc1ccc(Cl)c(Nc2ccccc2C(=O)OCC(=O)O)c1Cl [Ib, sodium salt (Ib) of 2-[(2,6-dichloro-3-methylphenyl)-amino]benzoyloxyacetic acid]
LD50 at 480 h ([1]; male and female rats, 20 days of observation, probit method, read-out: DL50): 271 mg/kg
LD50 at 480 h ([1]; mg/kg meclofenamic acid, read-out: LD50 as corresponding meclofenamic acid): 213 mg/kg
PR (rat; oral LD50, Ib and sodium meclofenamate, rat): 1.935 (1.191-3.586)
Slope (rat; oral LD50, probit method): 2.553 ± 0.6302
acute toxicity compared with sodium meclofenamate (in words) (rat; rat, oral LD50): less toxic than sodium meclofenamate, to a statistically significant extent
pH in 1% aqueous solution (pH of aqueous solution; 1% aqueous solution): 6.9 and 7.1
pH of aqueous solution (in words) (pH of aqueous solution; 1% aqueous solution (Ib)): practically neutral pH
change of Increase of Original Volume (in parentheses), 60 min (arachidonic acid oedema; [5]): -15
change of Increase of Original Volume (in parentheses), 60 min (arachidonic acid oedema; Ib 38.1 mg/kg, sodium meclofenamate 33 mg/kg): -40
Increase of Original Volume (m ± s.e.), 60 min (arachidonic acid oedema; dose corresponding to 10 mg/kg meclofenamic acid (Ib 12.7 mg/kg; sodium meclofenamate 11 mg/kg)): 0.53 ± 0.04
Increase of Original Volume (m ± s.e.), 60 min (arachidonic acid oedema; dose corresponding to 30 mg/kg meclofenamic acid (Ib 38.1 mg/kg, **P < 0.01; sodium meclofenamate 33 mg/kg, *P < 0.05 vs controls)): 0.37 ± 0.05
activity relative to sodium meclofenamate (arachidonic acid oedema; rat): about twice as active as sodium meclofenamate
statistically significant dose as fraction of the LD50 (arachidonic acid oedema; rat, oedema reduced in statistically significant manner): 1/7
significance of Ib vs. sodium meclofenamate ([2]; Duncan test): Not significant
% Protection, 0-10 minutes [2, 6]: 41%
% Protection, 10-20 minutes [2, 6]: 19%
% Protection, 20-30 minutes [2, 6]: 31%
% Protection, total [2, 6]: 31%
% Protection, 0-10 minutes [2, 7]: 54%
% Protection, 10-20 minutes [2, 7]: 41%
% Protection, 20-30 minutes [2, 7]: 50%
% Protection, total [2, 7]: 48%
Writhing (m ± s.e.) during 10-20 minutes [2, 8]: 16.6 ± 1.5
Writhing (m ± s.e.) during 20-30 minutes [2, 8]: 9.8 ± 1.0
Writhing (m ± s.e.) during 0-10 minutes [2, 9]: 14.8 ± 2.9
Writhing (m ± s.e.), total minutes [2, 9]: 41.2 ± 4.1
Writhing (m ± s.e.) during 10-20 minutes ([2]; oral, dose corresponding to 20 mg/kg meclofenamic acid (Ib 25.4 mg/kg; sodium meclofenamate 22.0 mg/kg)): 12.1 ± 2.3
Writhing (m ± s.e.) during 0-10 minutes [2, 10]: 11.6 ± 2.5
Writhing (m ± s.e.) during 20-30 minutes [2, 10]: 7.2 ± 1.4
Writhing (m ± s.e.), total minutes [2, 10]: 30.9 ± 5.8
analgesic activity compared with reference (in words) ([2]; oral, vs sodium meclofenamate, both doses): had the anti-inflammatory and analgesic properties of the reference compound; also recorded: comparable with that of sodium meclofenamate
Leucocytes (m ± s.e.), 24 h [3, 11]: 16.08 ± 6.85 × 10^6
Volume of exudate (m ± s.e.), 24 h [3, 11]: 0.26 ± 0.06 mL
Leucocytes (m ± s.e.), 4 h ([3]; os, Ib 31.75 mg/kg × 2 (*P < 0.05 vs controls), sodium meclofenamate 27.5 mg/kg × 2, 4 h): 1.08 ± 0.19 × 10^6
change of leucocytes (in parentheses), 4 h [3, 12]: -76
change of volume of exudate (in parentheses), 4 h [3, 12]: -25
change of leucocytes (in parentheses), 24 h [3, 13]: -81
change of volume of exudate (in parentheses), 24 h [3, 13]: -71
Volume of exudate (m ± s.e.), 4 h ([3]; os, dose corresponding to 25 mg/kg meclofenamic acid × 2 (Ib 31.75; sodium meclofenamate 27.5 mg/kg), 4 h): 0.24 ± 0.02 mL
activity relative to the reference compound in inhibiting volume of exudate and total content of leucocytes ([3]; rat, oral, equimolar doses (in meclofenamic acid)): about twice as active as the reference compound
activity in the hot plate test (in words) ([4]; mouse): some activity; also recorded: slight analgesic activity after 30 minutes
Percentages of mice protected at 30 minutes [4, 5]: 0%
Percentages of mice protected at 60 minutes [4, 5]: 0%
Percentages of mice protected at 30 minutes [4, 14]: 20%
Percentages of mice protected at 60 minutes [4, 14]: 0%
significance of Ib vs. sodium meclofenamate (carrageenin oedema; Duncan test): Not significant
Increase of original volume (m ± s.e.), 1 h (carrageenin oedema; [15]): 0.44 ± 0.3 mL
Increase of original volume (m ± s.e.), 2 h (carrageenin oedema; [15]): 0.81 ± 0.07 mL
Increase of original volume (m ± s.e.), 3 h (carrageenin oedema; [15]): 1.23 ± 0.06 mL
Increase of original volume (m ± s.e.), 4 h (carrageenin oedema; [15]): 1.39 ± 0.06 mL
Increase of original volume (m ± s.e.), 5 h (carrageenin oedema; [15]): 1.10 ± 0.08 mL
% change of increase of original volume, 1 h (carrageenin oedema; [16]): -6%
% change of increase of original volume, 2 h (carrageenin oedema; [16]): -15%
% change of increase of original volume, 3 h (carrageenin oedema; [16]): -20%
% change of increase of original volume, 4 h (carrageenin oedema; [16]): -8%
% change of increase of original volume, 5 h (carrageenin oedema; [16]): -10%
Increase of original volume (m ± s.e.), 1 h (carrageenin oedema; rat, oral, dose corresponding to 20 mg/kg meclofenamic acid (Ib 25,4 mg/kg; sodium meclofenamate 22,0 mg/kg)): 0.35 ± 0.05 mL
Increase of original volume (m ± s.e.), 2 h (carrageenin oedema; rat, oral, dose corresponding to 20 mg/kg meclofenamic acid (Ib 25,4 mg/kg; sodium meclofenamate 22,0 mg/kg), *P < 0.05): 0.62 ± 0.07 mL
Increase of original volume (m ± s.e.), 3 h (carrageenin oedema; [17]): 0.78 ± 0.07 mL
Increase of original volume (m ± s.e.), 4 h (carrageenin oedema; [17]): 1.11 ± 0.08 mL
Increase of original volume (m ± s.e.), 5 h (carrageenin oedema; [17]): 1.22 ± 0.08 mL
% change of increase of original volume, 1 h (carrageenin oedema; [18]): -22%
% change of increase of original volume, 2 h (carrageenin oedema; [18]): -35%
% change of increase of original volume, 3 h (carrageenin oedema; [18]): -42%
% change of increase of original volume, 4 h (carrageenin oedema; [18]): -31%
% change of increase of original volume, 5 h (carrageenin oedema; [18]): -26%
anti-inflammatory activity compared with reference (in words) (carrageenin oedema; rat, oral, vs sodium meclofenamate): had the anti-inflammatory and analgesic properties of the reference compound; also recorded: behaved in similar manner
minimal effective dose (carrageenin oedema; rat, oral, read-out: dose at which antagonism of the oedema is statistically significant): 68 µmol/kg
